Reference: US20090304674A1, “METHODS FOR TREATING DISEASE BY REGULATING CLL CELL SURVIVAL” (priority 2005, published 2009)
Entries after “also recorded” stand apart in the source; their conditions may differ.

Columns and labels:
[1] = tested on: CLL cells; test: Viability of CLL cells cultured with or without rhBAFF and inhibitors (DiOC6/PI flow cytometry); type: cell-based, human; settings: UTC 10 μM, 48 hours
Method: Freshly thawed CLL B cells were cultured at the concentration of 1×10^6/mL under various conditions. Determination of CLL cell viability in this study was based on the analysis of mitochondrial transmembrane potential (Δψm) using 3,3′-dehexyloxacarbocyamine iodine (DiOC6) and cell membrane permeability to PI, as described. For viability assays, 100 μl of the cell culture was collected at the indicated time points and transferred to polypropylene tubes containing 100 μl of 80 nmol/l DiOC6 (Molecular Probes) and 2 μg/ml PI in FACS buffer. The cells then were incubated at 37° C. for 15 minutes and analyzed within 30 minutes by flow cytometry using a FACSCalibur (Becton Dickinson). Fluorescence was recorded at 525 nm (FL-1) for DiOC6 and at 600 nm (FL-3) for PI.

[2] = molecular target: T1, IKK-2 (IKKβ) (Homo sapiens, UniProt O14920); settings: reported by Podolin and colleagues, cited from earlier work
T1 sequence (O14920 1-756): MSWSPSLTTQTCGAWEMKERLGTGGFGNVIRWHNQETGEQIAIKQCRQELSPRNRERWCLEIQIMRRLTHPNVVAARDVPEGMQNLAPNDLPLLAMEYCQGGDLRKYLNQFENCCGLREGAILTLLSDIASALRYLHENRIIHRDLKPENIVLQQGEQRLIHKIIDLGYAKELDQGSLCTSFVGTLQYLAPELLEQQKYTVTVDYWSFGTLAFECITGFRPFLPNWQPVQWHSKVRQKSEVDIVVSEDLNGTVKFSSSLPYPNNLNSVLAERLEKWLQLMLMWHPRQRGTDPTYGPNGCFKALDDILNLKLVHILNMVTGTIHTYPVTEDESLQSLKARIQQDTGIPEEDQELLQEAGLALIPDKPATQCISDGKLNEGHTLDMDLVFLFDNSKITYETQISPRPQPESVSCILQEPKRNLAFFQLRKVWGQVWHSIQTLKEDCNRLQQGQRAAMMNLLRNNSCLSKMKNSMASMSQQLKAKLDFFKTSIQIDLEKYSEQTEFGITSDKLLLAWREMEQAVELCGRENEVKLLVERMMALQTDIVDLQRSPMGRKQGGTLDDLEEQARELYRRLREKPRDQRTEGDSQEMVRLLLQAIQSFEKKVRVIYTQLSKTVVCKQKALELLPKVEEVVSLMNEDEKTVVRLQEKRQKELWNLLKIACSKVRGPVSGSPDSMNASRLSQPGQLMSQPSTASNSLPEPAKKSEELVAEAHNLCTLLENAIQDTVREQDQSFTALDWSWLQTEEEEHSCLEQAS

[3] = tested on: normal B cells of healthy donors; test: Viability of isolated normal B cells of healthy donors with or without rhBAFF and UTC; type: cell-based, human; settings: UTC 10 μM, 48 hours
Method: CD19+ B cells of healthy donors were isolated from the buffy coat of blood samples collected from adult volunteers at the San Diego Blood Bank (San Diego, Calif.), as described.
Isolated blood mononuclear cells of patients with CLL were incubated with saturating amounts of Dynabeads coated with anti-CD2 or anti-CD14 mAbs (Dynal A.S. Oslo, Norway). Beadbound cells were removed with a strong magnetic field. Following depletion, less than 0.5% of cells were CD2+ or CD14+, whereas more than 99% were CD19+, as assessed via flow cytometry (data not shown). Peripheral normal CD19+ B cells of healthy donors were purified from the buffy coat of blood samples using CD19 Dynabeads and Detach A Beads (Dynal), following the manufacturer's instructions.
Freshly thawed CLL B cells were cultured at the concentration of 1×10^6/mL under various conditions. Determination of CLL cell viability in this study was based on the analysis of mitochondrial transmembrane potential (Δψm) using 3,3′-dehexyloxacarbocyamine iodine (DiOC6) and cell membrane permeability to PI, as described. […] The cells then were incubated at 37° C. for 15 minutes and analyzed within 30 minutes by flow cytometry using a FACSCalibur (Becton Dickinson). Fluorescence was recorded at 525 nm (FL-1) for DiOC6 and at 600 nm (FL-3) for PI.

[4] = tested on: canonical NF-κB1 pathway in CLL B cells; test: Immunoblot of canonical NF-κB1 pathway activation (IκBα degradation/phosphorylation, p65 nuclear translocation) in CLL B cells; type: cell-based, human; settings: rhBAFF 50 ng/ml, 24 hours, UTC pre-incubated 1 hour
Method: Cell lysates were prepared with RIPA buffer (10 mM Tris (pH 7.4), 150 mM NaCl, 1% Triton x 100, 1% deoxycholate, 0.1% SDS, 5 mM EDTA), containing 1 mM PMSF, 0.28 TIU/ml aprotinin, 50 μg/ml leupeptin, 1 mM benzamidine, 0.7 μg/ml pepstatin. Lysates were normalized for total protein (20 μg), subjected to SDS-PAGE (4-15% gradient gels, Bio-Rad, Hercules, Calif.) and immunoblot assay. We incubated the blots with secondary antibodies that were conjugated with horseradish peroxidase. Blots then were prepared for enhanced chemiluminescence (ECL) detection system (Amersham, Little Chalfont, Buckinghamshire, UK) and subsequent autoradiography with Super RX film (Fuji, Tokyo, Japan). The mouse mAb against APRIL (APRIL8) was from Alexis Biochemicals. The mouse mAb against inhibitor of kappa B-α (IκκBα was from Imgenex (San Diego, Calif.). The antibodies against anti-phosho-MAP kinase Erk1/2 and anti-MAP kinase Erk1/2-CT were purchased from Upstate Biotechnology. Antibodies against AKT or phospho-AKT (Ser473) were from Cell Signaling (Beverly, Mass.). Rabbit polyclonal antibodies (Mcl-1, Bcl-2, and Bax) were raised against synthetic peptides.21 Also primary antibodies included β-actin (Sigma Immunochemicals, St Louis, Mo.). Anti-p52 and anti-p65 antibodies were purchased from Upstate Biotechnology.
For fractionation experiments, cells were collected by centrifugation and washed with PBS. The cell pellet containing 5×10^6 cells was suspended in 100 μl of hypotonic buffer (50 mM Tris (pH7.4), 5 mM EDTA, 10 mM NaCl, 0.05% NP-40, 1 mM PMSF, 10 μg/ml Aprotinin, 10 μg/ml Leupeptin, 10 μg/ml Pepstatin, 10 mM β-Glycerophosphate, 1 mM Na-Vanadate, 1 mM NaF). After 10 minutes the lysate was spun and the supernatant was collected as cytoplasmic lysates. The pellet was washed 5 times in hypotonic buffer containing 0.1% NP-40. The remaining pellet was suspended in 100 μl RIPA buffer containing protease and phosphatase inhibitors. After an appropriate amount of 3× sample buffer (200 mM Tris (pH 6.8), 30 mM EDTA, 30% Glycerol, 6% SDS) was added, the sample was boiled for 10 minutes, spun for 10 minutes and the supernatant was recovered as nucleus lysates. Anti-NF kappa B p52 and p65 were purchased from Upstate Biotechnology. Anti-SP-1 was purchased from Santa Cruz Biotechnology (Santa Cruz, Calif.).
Cell lysates were prepared with radioimmunoprecipitation assay (RIPA) buffer (10 mM Tris [pH 7.4], 150 mM NaCl, 1% Triton X-100, 0.1% deoxycholate, 0.1% SDS, 5 mM EDTA), containing 1× complete protease inhibitor cocktail (Roche diagnostics), 1 mM sodium fluoride (NaF), and 1 mM sodium vanadate (Na3VO4). Lysates were normalized for total protein (25 μg) and subjected to SDS-PAGE (4-15% gradient gels, Bio-Rad, Hercules, Calif.) and immunoblot assay. We incubated the blots with secondary antibodies that were conjugated with horseradish peroxidase. Blots then were prepared for enhanced chemiluminescence (ECL) detection system (Amersham, Little Chalfont, United Kingdom) and subsequent autoradiography with Super RX film (Fuji, Tokyo, Japan).
For fractionation experiments, cells were collected by centrifugation and washed with PBS. The cell pellet containing 5×10^6 cells was suspended in 100 μl of hypotonic buffer (50 mM Tris [pH7.4], 5 mM EDTA, 10 mM NaCl, 0.05% Nonidet P40 [NP-40]), containing 1× complete protease inhibitor cocktail, 1 mM NaF, and 1 mM Na3VO4. After 10 minutes, the lysate was spun and the supernatant was collected as cytoplasmic lysates. […]

SMILES: NC(=O)Nc1sc(-c2ccc(F)cc2)cc1C(N)=O [UTC, 5-(4-fluorophenyl)-2-ureido-thiophene-3 carboxylic acid amide]
- viability of CLL cells versus medium alone ([1]; 8 patients): significantly lower than that of CLL cells cultured with medium alone
- effect on rhBAFF-enhanced survival/viability of CLL cells ([1]; rhBAFF 50 ng/ml, anti-BR3 or BR3-Fc 10 μg/ml): significantly inhibited the capacity of rhBAFF to support CLL cell survival
- selectivity for IKK-2 versus the other ten kinases ([2]; p38α, p38β, p38γ, p38δ, MAPKAPK2, MKK1, MAPK2, COX-1, COX-2, JNK1): more than 550 fold
- selectivity for IKK-2 versus IKK-1 [2]: 22 fold
- selectivity for IKK-2 versus JNK3 [2]: 200 fold
- survival/viability of isolated normal B cells cultured without rhBAFF ([3]; 8 donors): did not have any effect on survival of isolated normal B cells; also recorded: no significant difference
- effect on pro-survival effect of exogenous rhBAFF on normal B cells ([3]; rhBAFF 50 ng/ml): could partially block the pro-survival effect of exogenous rhBAFF
- inhibition of BAFF-induced translocation of p65 to the nucleus ([4]; anti-BR3 10 μg/ml): inhibited BAFF induced nuclear translocation of p65
- inhibition of rhBAFF-induced phosphorylation of IκBα ([4]; anti-BR3 or BR3-Fc 10 μg/ml): inhibited phosphorylation of IκBα
